Reference: US20100075907A1, “NEUROMEDIN U RECEPTOR AGONISTS AND USES THEREOF” (priority 2006, published 2010)
Non-standard residues stand in square brackets, D forms with d. Residues, ends and D or L forms follow the SMILES beside them.

What was measured:
hNMUR1 = biological target: T1, hNMUR1 (Homo sapiens, UniProt Q9HB89); assay: FLIPR calcium mobilization assay, human NMUR1; format: cell-based; design: expressed in transfected cells; host or cells: FLP-In CHO or HEK-293 FLP-In cells (pcDNA5); HEK-293/aeq17 lines (pIRES-puro) were also made; conditions: functional data, human R1
T1 sequence (Q9HB89 1-426): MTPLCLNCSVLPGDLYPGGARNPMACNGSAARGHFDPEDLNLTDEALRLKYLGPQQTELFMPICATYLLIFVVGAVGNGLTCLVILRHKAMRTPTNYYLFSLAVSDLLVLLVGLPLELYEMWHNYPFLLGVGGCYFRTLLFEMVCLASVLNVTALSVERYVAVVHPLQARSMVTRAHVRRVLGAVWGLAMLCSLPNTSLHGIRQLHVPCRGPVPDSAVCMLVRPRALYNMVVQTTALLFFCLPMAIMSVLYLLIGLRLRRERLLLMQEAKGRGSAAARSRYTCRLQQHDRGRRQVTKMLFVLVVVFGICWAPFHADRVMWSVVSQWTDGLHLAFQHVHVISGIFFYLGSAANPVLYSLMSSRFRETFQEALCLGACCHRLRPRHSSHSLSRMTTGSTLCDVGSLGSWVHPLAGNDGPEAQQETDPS

rat NMUR1-TTG = biological target: T2, rat NMUR1-TTG (Rattus norvegicus, UniProt Q9JJI5); assay: FLIPR calcium mobilization assay, rat NMUR1-TTG; format: cell-based; design: expressed in transfected cells; host or cells: FLP-In CHO or HEK-293 FLP-In cells (pcDNA5); conditions: functional data, rat R1-TTG
T2 sequence (Q9JJI5 1-425): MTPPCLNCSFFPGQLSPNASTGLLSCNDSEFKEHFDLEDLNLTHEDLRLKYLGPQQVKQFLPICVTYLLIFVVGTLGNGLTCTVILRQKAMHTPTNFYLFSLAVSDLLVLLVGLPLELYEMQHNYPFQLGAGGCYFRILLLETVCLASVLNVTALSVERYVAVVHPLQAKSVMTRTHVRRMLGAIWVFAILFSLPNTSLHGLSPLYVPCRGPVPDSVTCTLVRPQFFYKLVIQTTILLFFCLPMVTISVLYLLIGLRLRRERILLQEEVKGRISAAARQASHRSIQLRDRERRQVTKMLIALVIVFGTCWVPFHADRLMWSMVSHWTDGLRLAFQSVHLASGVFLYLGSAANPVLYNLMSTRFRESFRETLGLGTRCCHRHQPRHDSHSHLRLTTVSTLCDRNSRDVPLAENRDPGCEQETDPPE

in vitro = conditions: human, plasma

| Compound | IC50 (hNMUR1) [nM] | IC50 (rat NMUR1-TTG) [nM] | half-life at 1 μM (in vitro) [h] |
| --- | --- | --- | --- |
| CC(C)C[C@@H](NC(=O)[C@H](Cc1ccccc1)NC(=O)[C@H](Cc1ccc(O)cc1)NC(=O)CNC(=O)[C@H](CCCNC(=N)N)NC(=O)[C@H](CO)NC(=O)[C@H](CCC(N)=O)NC(=O)[C@H](CO)NC(=O)[C@H](C)NC(=O)[C@H](Cc1ccccc1)NC(=O)[C@@H]1CCCN1C(=O)[C@H](CO)NC(=O)[C@H](CCC(N)=O)NC(=O)[C@H](Cc1ccccc1)NC(=O)[C@H](CCC(=O)O)NC(=O)[C@H](CCC(=O)O)NC(=O)[C@H](CC(=O)O)NC(=O)[C@@H](NC(=O)[C@H](CCCNC(=N)N)NC(=O)[C@@H](N)Cc1ccccc1)C(C)C)C(=O)N[C@@H](Cc1c[nH]c2ccccc12)C(=O)N[C@@H](CCCNC(=N)N)C(=O)N1CCC[C@H]1C(=O)N[C@@H](CCCNC(=N)N)C(=O)N[C@@H](CC(N)=O)C(N)=O [Agonist H] (H-FRVDEEFQSPFASQSRGYF[dL]WRPRN-NH2; N-terminus assumed) | 1.25 | 153 | – |
| H-FRVDEEFQSPFASQSRGYFLFRPRN-NH2 [hNMU-25, reference compound] | 0.2 | 1 | < 16 |
